Usually viability stands for a read-out of living cells in per cent, often relative to untreated cells. The IC50 is the concentration needed to halve the response being measured.

The values that follow come from publication PMC12040169 (PLOS Biology, 2025).

Data set [1] can be described thus: in vitro. Further details: Viability of infected HeLa host cells, resazurin conversion, bulk resorufin fluorescence relative to DMSO. As to conditions: human, hela cells; bulk resorufin, single well.
Data set [2] relates to T1, CTL2-GFP (C. trachomatis L2/434/Bu, GFP-expressing).
T1 construct: L2/434/Bu, GFP-expressing
On the set-up: species or system HeLa; Intracellular C. trachomatis growth in HeLa cells, bulk GFP fluorescence relative to DMSO. The following applies: 28.5 h, 10 µM; inhibitor.

Data set [3] in a line: in vitro. As to conditions: human, hela cells.
In data set [4] the test system is T2, C. trachomatis L2/434/Bu expressing GFP (CTL2-GFP).
T2 construct: L2/434/Bu GFP intracellular growth in HeLa cells
Further details: species or system HeLa; C. trachomatis total inclusion area by high-content imaging, normalised to DMSO. The following applies: 28.5 h, 10 µM; inhibitor. The text has this:
In this process, we also complemented the assay described above with an imaging-based readout (Fig 1B). After measurements of bulk GFP and resorufin fluorescence, cells were fixed, stained with the DNA dye Hoechst, and imaged at a high-content imaging platform to detect chlamydial inclusions (GFP) and host cell nuclei (Hoechst). The total area and number of inclusions in individual wells and the number of nuclei then served as additional proxies for chlamydial growth and host cell viability. […] MICs were calculated as described above.

In data set [5] the test system is T3, L. crispatus.
T3 construct: DSM 20584
Nature of the data set: microbe, parasite or virus in culture. On the set-up: Microbial growth in liquid dilution assay, OD600 relative to DMSO control. As to conditions: Lactobacillus crispatus; estimated IC50; read-out: L. crispatus, IC50 (µM) estimate.

The subject of data set [6] is T1, CTL2-GFP (C. trachomatis L2/434/Bu, GFP-expressing). Nature of the data set: microbe, parasite or virus in culture. Further details: Intracellular C. trachomatis growth in HeLa cells, bulk GFP fluorescence relative to DMSO. As to conditions: Chlamydia trachomatis, HeLa, 28.5 h; bulk GFP. The method, then: (§1) MICs were calculated as described above.
The test system of data set [7] is T4, L. iners.
T4 construct: DSM 13335
Briefly: organism not typed. Further details: Microbial growth in liquid dilution assay, OD600 relative to DMSO control. As to conditions: estimated IC50; read-out: L. iners, IC50 (µM) estimate.

For data set [8], the system named is T1, CTL2-GFP (C. trachomatis L2/434/Bu, GFP-expressing). Briefly: microbe, parasite or virus in culture. Further details: species or system HeLa; Intracellular C. trachomatis growth in HeLa cells, bulk GFP fluorescence relative to DMSO. As to conditions: Chlamydia trachomatis, 28.5 h; bulk GFP. How it is done:
as §1

Data set [9] relates to T5, C. albicans.
T5 construct: DSM 1577
Briefly: microbe, parasite or virus in culture. The following applies: Candida albicans, read-out: C. albicans, IC50 (µM) estimate. Further details: Microbial growth in liquid dilution assay, OD600 relative to DMSO control.

The subject of data set [10] is T6, E. faecalis.
T6 construct: DSM 20478
Nature of the data set: microbe, parasite or virus in culture. On the set-up: Microbial growth in liquid dilution assay, OD600 relative to DMSO control. The following applies: Enterococcus faecalis; estimated IC50; read-out: E. faecalis, IC50 (µM) estimate. The procedure, abridged:
(§2)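 Commensal strains were grown with compounds in a dilution assay, with 30 µM among the concentrations used. A wider panel of gut bacteria was tested by radial diffusion, with 24–48 h compound exposure before growth inhibition zones were measured.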

Data set [11] concerns T7, B. thetaiotaomicron.
T7 construct: DSM 2079
Nature of the data set: microbe, parasite or virus in culture. Further details: Microbial growth in liquid dilution assay, OD600 relative to DMSO control. The following applies: Bacteroides thetaiotaomicron; estimated IC50; read-out: B. thetaiotaomicron, IC50 (µM) estimate. The procedure, abridged: as §2

Data set [12] deals with T8, B. adolescentis.
T8 construct: DSM 20083
Briefly: microbe, parasite or virus in culture. On the set-up: Microbial growth in liquid dilution assay, OD600 relative to DMSO control. As to conditions: Bifidobacterium adolescentis; estimated IC50; read-out: B. adolescentis, IC50 (µM) estimate. The procedure, abridged: as §2

In data set [13] the test system is T9, L. reuteri.
T9 construct: DSM 20016
Briefly: microbe, parasite or virus in culture. On the set-up: Microbial growth in liquid dilution assay, OD600 relative to DMSO control. The following applies: Limosilactobacillus reuteri; estimated IC50; read-out: L. reuteri, IC50 (µM) estimate. The procedure, abridged:
as §2

For data set [14], the system named is T10, E. coli.
T10 construct: DSM 301
Briefly: microbe, parasite or virus in culture. Further details: Microbial growth in liquid dilution assay, OD600 relative to DMSO control. The following applies: Escherichia coli; estimated IC50; read-out: E. coli, IC50 (µM) estimate. The procedure, abridged:
as §2

The test system of data set [15] is T11, G. vaginalis.
T11 construct: DSM 4944
Nature of the data set: microbe, parasite or virus in culture. Further details: Microbial growth in liquid dilution assay, OD600 relative to DMSO control. The following applies: Gardnerella vaginalis, read-out: G. vaginalis, IC50 (µM) estimate.

Data set [16] relates to T2, C. trachomatis L2/434/Bu expressing GFP (CTL2-GFP). Briefly: microbe, parasite or virus in culture. Further details: C. trachomatis total inclusion area by high-content imaging, normalised to DMSO. As to conditions: Chlamydia trachomatis, HeLa, 28.5 h; read-out: IC50 (µM), total inclusion area. The procedure, abridged: (§3)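 After bulk GFP and resorufin reads, fixed cells were Hoechst-stained and imaged to count chlamydial inclusions and host nuclei. Total inclusion area and number tracked bacterial growth, and nuclei number tracked host viability. MICs were derived, and 36,785 drug-like molecules were screened this way.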

Data set [17] shares this test system. Briefly: microbe, parasite or virus in culture. Further details: C. trachomatis GFP growth in infected HeLa cells, bulk GFP fluorescence normalised to DMSO. As to conditions: Chlamydia trachomatis, HeLa, 26 h; read-out: IC50 (µM), bulk GFP fluorescence. How it is done: as §1
In data set [18] the test system is T1, CTL2-GFP (C. trachomatis L2/434/Bu, GFP-expressing). Nature of the data set: microbe, parasite or virus in culture. The following applies: Chlamydia trachomatis, HeLa, 28.5 h; mean of GFP and inclusion area. On the set-up: C. trachomatis growth in HeLa, dose-response, mean of bulk GFP fluorescence and imaged total inclusion area. The procedure, abridged: as §3

Data set [19] in a line: in vitro. Further details: Viability of infected HeLa host cells, resazurin conversion, bulk resorufin fluorescence relative to DMSO. As to conditions: human, hela cells; bulk resorufin, mean of 3.
In data set [20] the test system is T1, CTL2-GFP (C. trachomatis L2/434/Bu, GFP-expressing). Nature of the data set: microbe, parasite or virus in culture. Further details: species or system HeLa; C. trachomatis growth in HeLa, dose-response, mean of bulk GFP fluorescence and imaged total inclusion area. As to conditions: Chlamydia trachomatis, 28.5 h; mean of GFP and inclusion area. The procedure, abridged:
as §3

Data set [21] deals with T12, ctFabH (CTL2 FabH), His6(-fMet)SG-ctFabH (Chlamydia trachomatis, UniProt O84242).
T12 construct: synthetic gene, modified pRSF-Duet1, E. coli host; partly acylated (mainly pentanoyl) as purified
T12 sequence (O84242 2-327): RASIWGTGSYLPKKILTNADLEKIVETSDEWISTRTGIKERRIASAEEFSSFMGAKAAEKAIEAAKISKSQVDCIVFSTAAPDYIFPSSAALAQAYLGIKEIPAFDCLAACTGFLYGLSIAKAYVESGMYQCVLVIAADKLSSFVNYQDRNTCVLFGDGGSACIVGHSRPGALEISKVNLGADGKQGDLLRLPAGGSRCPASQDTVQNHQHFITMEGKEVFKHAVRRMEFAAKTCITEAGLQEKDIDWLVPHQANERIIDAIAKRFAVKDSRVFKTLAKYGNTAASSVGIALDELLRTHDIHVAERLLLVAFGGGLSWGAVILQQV
Nature of the data set: continuous UV assay of acetoacetyl-CoA at […] nm. The data set is classed as biochemical. As to conditions: 20 µM enzyme, 100 µM acetyl-CoA, 100 µM malonyl-CoA, pH 8.0, 25 °C, 50 mM MgCl2; surrogate of malonyl-ACP.

≈ marks a conversion by molar mass, not a printed value. Like-named read-outs stand apart in the source and are kept apart here. Some results are limits rather than exact numbers.

For the compound `O=C(c1cccc(S(=O)(=O)F)c1)N1CCCCC1` [CBK074224], the viability at 28.5 h, 10 µM in [1] came out at 96.6%.

Consider `S=P(Oc1ccccc1)(Oc1ccccc1)Oc1ccccc1` [CBK260987], for which the viability at 28.5 h, 10 µM in [1] came out at 87.5%.

As to `CCOC(=O)CC(C)(O)P(=O)(OC)OC` (stereo not drawn) [CBK261287], the viability at 28.5 h, 10 µM in data set [1] worked out at 101%.

Consider `CCn1cc(C(=O)O)c(=O)c2cc(F)c(NC3CCCCC3)cc21` [CBK286635], for which the “% of control remaining” value in [2] is 100.652; in data set [4], 72.3144. Further, the viability at 28.5 h, 10 µM in data set [3] was 89.2%.

As for `CCc1cccc(OCC(=O)Nc2ccc(S(=O)(=O)Nc3onc(C)c3C)cc2)c1` [c2v], the IC50 in data set [5] was > 30 µM; in [6] it was 0.471 µM; in data set [7] it was > 30 µM; in data set [9], > 30 µM; in data set [10], > 30 µM; in [11], > 30 µM. Also, the IC50 in data set [12], in [13], in data set [14] and in [15] was > 30 µM in each case. In [8], this compound returned an MIC of 0.693 µM (≈ 0.298 µg/mL).

As for `O=C(NN=Cc1ccc([N+](=O)[O-])o1)c1nc(-c2ccccc2)cc(-c2ccccc2)n1` [c3e], the IC50 worked out at 0.133 µM in data set [16] and 0.118 µM in data set [17].

As for `O=C(CC1CCN(CCc2ccccc2)CC1)Nc1cccc(-n2cccn2)c1` [c4e], half-maximal inhibition in data set [18] (IC50) was put at 0.332 µM. Moreover, in [5], the IC50 is > 30 µM. In data set [19], the viability at 28.5 h, 0.000416667 µM stood at 92.2%; the viability at 28.5 h, 0.00125 µM worked out at 95.9%; the viability at 28.5 h, 0.00375 µM worked out at 89.2%; the viability at 28.5 h, 0.0123333 µM amounted to 92.7%. For the same compound, in [19], the viability at 28.5 h, 0.037 µM amounted to 90.6%; the viability at 28.5 h, 0.111 µM amounted to 94.2%; the viability at 28.5 h, 0.333 µM was determined as 86.2%; the viability at 28.5 h, 1 µM amounted to 89.9%. For the same compound, in data set [19], the viability at 28.5 h, 3 µM was 82.9%; the viability at 28.5 h, 10 µM came to 88.5%; the viability at 28.5 h, 30 µM is 87.2%. The IC50 in data set [7] was > 30 µM. Further, the IC50 in data set [9] was > 30 µM. In data set [10], the IC50 was > 30 µM. Also, the IC50 in data set [11] was > 30 µM. Also, in [12], the IC50 was > 30 µM. Moreover, in [13], the IC50 was > 30 µM. For the same compound, the IC50 in data set [14] is > 30 µM. In data set [20], the MIC came out at 1.56 µM (≈ 0.605 µg/mL). Further, the IC50 in data set [15] was > 30 µM.

On to `CC(C)(COP(=O)(O)OP(=O)(O)OC[C@H]1O[C@@H](n2cnc3c(N)ncnc32)[C@H](O)[C@@H]1OP(=O)(O)O)[C@@H](O)C(=O)NCCC(=O)NCCSC(=O)CC(=O)O` [malonyl-CoA], for which the “continuous UV assay of acetoacetyl-CoA at 302 nm” value in data set [21] is “using acetyl-CoA and malonyl-CoA (instead of malonyl-ACP) as substrates”.
